According to the NIST ThermoML archive (doi:10.1021/je501141e):
Numbers after ± are expanded uncertainties.

Experiment: xn = mol fraction of the nth substance listed
Conditions: 100 kPa, Liquid; for viscosity: Concentric cylinders viscometry; for speed of sound: Frequency=200 MHz, Sing-around technique in a fixed-path interferometer; for mass density: Vibrating tube method

CC(CC(C)(C)C)CC(C)(C)CC(C)(C)C (stereo not given) [2,2,4,4,6,8,8-heptamethylnonane] + CC(CC(C)(C)C)CC(C)(C)C
Conditions | mass density [kg/m3] | speed of sound [m/s] | viscosity [mPa·s]
293.15 K, x1 = 0.0772 | 749.05 ± 0.21 | 1211.7 ± 0.9 | 1.43 ± 0.02
293.15 K, x1 = 0.1584 | 752.89 ± 0.21 | 1219.4 ± 0.9 | 1.55 ± 0.02
293.15 K, x1 = 0.2439 | 756.76 ± 0.21 | 1226.7 ± 0.9 | 1.7 ± 0.02
293.15 K, x1 = 0.334 | 760.65 ± 0.21 | 1234.8 ± 0.9 | 1.87 ± 0.02
293.15 K, x1 = 0.4293 | 764.68 ± 0.22 | 1242.9 ± 1 | 2.08 ± 0.02
293.15 K, x1 = 0.5302 | 768.56 ± 0.22 | 1251.1 ± 1 | 2.29 ± 0.02
293.15 K, x1 = 0.6371 | 772.47 ± 0.23 | 1259.6 ± 1 | 2.56 ± 0.03
293.15 K, x1 = 0.7506 | 776.56 ± 0.23 | 1268.2 ± 1 | 2.86 ± 0.03
293.15 K, x1 = 0.8711 | 780.52 ± 0.24 | 1276.9 ± 1 | 3.25 ± 0.03
293.15 K, x1 = 1 | – | – | 3.71 ± 0.03
303.15 K, x1 = 0.0772 | 741.82 ± 0.21 | 1173 ± 0.9 | 1.2 ± 0.02
303.15 K, x1 = 0.1584 | 745.73 ± 0.21 | 1180.9 ± 0.9 | 1.3 ± 0.02
303.15 K, x1 = 0.2439 | 749.65 ± 0.21 | 1188.4 ± 0.9 | 1.42 ± 0.02
303.15 K, x1 = 0.334 | 753.6 ± 0.22 | 1196.6 ± 0.9 | 1.55 ± 0.02
303.15 K, x1 = 0.4293 | 757.69 ± 0.22 | 1205 ± 0.9 | 1.71 ± 0.02
303.15 K, x1 = 0.5302 | 761.62 ± 0.23 | 1213.3 ± 1 | 1.88 ± 0.02
303.15 K, x1 = 0.6371 | 765.59 ± 0.23 | 1221.9 ± 1 | 2.08 ± 0.02
303.15 K, x1 = 0.7506 | 769.74 ± 0.24 | 1230.8 ± 1 | 2.31 ± 0.02
303.15 K, x1 = 0.8711 | 773.76 ± 0.24 | 1239.6 ± 1 | 2.59 ± 0.03
303.15 K, x1 = 1 | – | – | 2.93 ± 0.03
313.15 K, x1 = 0.0772 | 734.56 ± 0.21 | 1135 ± 0.9 | 1.02 ± 0.02
313.15 K, x1 = 0.1584 | 738.53 ± 0.21 | 1143 ± 0.9 | 1.1 ± 0.02
313.15 K, x1 = 0.2439 | 742.51 ± 0.22 | 1150.7 ± 0.9 | 1.2 ± 0.02
313.15 K, x1 = 0.334 | 746.52 ± 0.22 | 1159 ± 0.9 | 1.3 ± 0.02
313.15 K, x1 = 0.4293 | 750.67 ± 0.22 | 1167.6 ± 0.9 | 1.43 ± 0.02
313.15 K, x1 = 0.5302 | 754.66 ± 0.23 | 1176.1 ± 1 | 1.56 ± 0.02
313.15 K, x1 = 0.6371 | 758.69 ± 0.23 | 1184.8 ± 1 | 1.72 ± 0.02
313.15 K, x1 = 0.7506 | 762.9 ± 0.24 | 1193.9 ± 1 | 1.9 ± 0.02
313.15 K, x1 = 0.8711 | 766.98 ± 0.24 | 1202.8 ± 1 | 2.12 ± 0.02
313.15 K, x1 = 1 | – | – | 2.37 ± 0.03
323.15 K, x1 = 0.0772 | 727.27 ± 0.21 | 1097.7 ± 0.9 | 0.882 ± 0.021
323.15 K, x1 = 0.1584 | 731.3 ± 0.22 | 1105.9 ± 0.9 | 0.947 ± 0.021
323.15 K, x1 = 0.2439 | 735.34 ± 0.22 | 1113.7 ± 0.9 | 1.03 ± 0.02
323.15 K, x1 = 0.334 | 739.41 ± 0.22 | 1122.2 ± 0.9 | 1.11 ± 0.02
323.15 K, x1 = 0.4293 | 743.63 ± 0.23 | 1131 ± 0.9 | 1.21 ± 0.02
323.15 K, x1 = 0.5302 | 747.69 ± 0.23 | 1139.7 ± 0.9 | 1.32 ± 0.02
323.15 K, x1 = 0.6371 | 751.78 ± 0.23 | 1148.5 ± 1 | 1.44 ± 0.02
323.15 K, x1 = 0.7506 | 756.05 ± 0.24 | 1157.7 ± 1 | 1.59 ± 0.02
323.15 K, x1 = 0.8711 | 760.19 ± 0.25 | 1166.8 ± 1 | 1.76 ± 0.02
323.15 K, x1 = 1 | – | – | 1.95 ± 0.02
333.15 K, x1 = 0.0772 | 719.94 ± 0.22 | 1061.1 ± 0.8 | 0.768 ± 0.021
333.15 K, x1 = 0.1584 | 724.04 ± 0.22 | 1069.5 ± 0.9 | 0.822 ± 0.021
333.15 K, x1 = 0.2439 | 728.14 ± 0.22 | 1077.5 ± 0.9 | 0.889 ± 0.021
333.15 K, x1 = 0.334 | 732.28 ± 0.23 | 1086.1 ± 0.9 | 0.956 ± 0.021
333.15 K, x1 = 0.4293 | 736.56 ± 0.23 | 1095.1 ± 0.9 | 1.04 ± 0.02
333.15 K, x1 = 0.5302 | 740.68 ± 0.23 | 1103.9 ± 0.9 | 1.13 ± 0.02
333.15 K, x1 = 0.6371 | 744.84 ± 0.24 | 1112.9 ± 1 | 1.23 ± 0.02
333.15 K, x1 = 0.7506 | 749.18 ± 0.24 | 1122.3 ± 1 | 1.34 ± 0.02
333.15 K, x1 = 0.8711 | 753.38 ± 0.25 | 1131.6 ± 1 | 1.48 ± 0.02
333.15 K, x1 = 1 | – | – | 1.64 ± 0.02
343.15 K, x1 = 0.0772 | 712.57 ± 0.22 | 1025.2 ± 0.8 | 0.676 ± 0.021
343.15 K, x1 = 0.1584 | 716.73 ± 0.22 | 1033.7 ± 0.9 | 0.721 ± 0.021
343.15 K, x1 = 0.2439 | 720.9 ± 0.23 | 1041.9 ± 0.9 | 0.778 ± 0.021
343.15 K, x1 = 0.334 | 725.11 ± 0.23 | 1050.7 ± 0.9 | 0.834 ± 0.021
343.15 K, x1 = 0.4293 | 729.46 ± 0.23 | 1059.8 ± 0.9 | 0.906 ± 0.021
343.15 K, x1 = 0.5302 | 733.65 ± 0.24 | 1068.8 ± 0.9 | 0.975 ± 0.021
343.15 K, x1 = 0.6371 | 737.87 ± 0.24 | 1077.9 ± 1 | 1.06 ± 0.02
343.15 K, x1 = 0.7506 | 742.28 ± 0.24 | 1087.5 ± 1 | 1.15 ± 0.02
343.15 K, x1 = 0.8711 | 746.55 ± 0.25 | 1096.9 ± 1 | 1.26 ± 0.02
343.15 K, x1 = 1 | – | – | 1.39 ± 0.02
353.15 K, x1 = 0.0772 | 705 ± 0.2 | – | 0.6 ± 0.021
353.15 K, x1 = 0.1584 | 709.3 ± 0.2 | – | 0.638 ± 0.021
353.15 K, x1 = 0.2439 | 713.4 ± 0.2 | – | 0.687 ± 0.021
353.15 K, x1 = 0.334 | 717.7 ± 0.2 | – | 0.734 ± 0.021
353.15 K, x1 = 0.4293 | 722.1 ± 0.2 | – | 0.794 ± 0.021
353.15 K, x1 = 0.5302 | 726.4 ± 0.2 | – | 0.852 ± 0.021
353.15 K, x1 = 0.6371 | 730.8 ± 0.2 | – | 0.923 ± 0.021
353.15 K, x1 = 0.7506 | 735.1 ± 0.3 | – | 0.998 ± 0.021
353.15 K, x1 = 0.8711 | 739.5 ± 0.3 | – | 1.09 ± 0.02
353.15 K, x1 = 1 | – | – | 1.19 ± 0.02
363.15 K, x1 = 0.0772 | 697.5 ± 0.2 | – | 0.538 ± 0.021
363.15 K, x1 = 0.1584 | 701.8 ± 0.2 | – | 0.57 ± 0.021
363.15 K, x1 = 0.2439 | 706.1 ± 0.2 | – | 0.613 ± 0.021
363.15 K, x1 = 0.334 | 710.4 ± 0.2 | – | 0.653 ± 0.021
363.15 K, x1 = 0.4293 | 714.8 ± 0.2 | – | 0.704 ± 0.021
363.15 K, x1 = 0.5302 | 719.2 ± 0.2 | – | 0.753 ± 0.021
363.15 K, x1 = 0.6371 | 723.7 ± 0.3 | – | 0.813 ± 0.021
363.15 K, x1 = 0.7506 | 728.1 ± 0.3 | – | 0.88 ± 0.021
363.15 K, x1 = 0.8711 | 732.5 ± 0.3 | – | 0.954 ± 0.021
363.15 K, x1 = 1 | – | – | 1.04 ± 0.02
373.15 K, x1 = 0.0772 | 689.9 ± 0.2 | – | 0.487 ± 0.021
373.15 K, x1 = 0.1584 | 694.2 ± 0.2 | – | 0.515 ± 0.021
373.15 K, x1 = 0.2439 | 698.6 ± 0.2 | – | 0.553 ± 0.021
373.15 K, x1 = 0.334 | 703.1 ± 0.2 | – | 0.586 ± 0.021
373.15 K, x1 = 0.4293 | 707.5 ± 0.2 | – | 0.63 ± 0.021
373.15 K, x1 = 0.5302 | 712.1 ± 0.2 | – | 0.673 ± 0.021
373.15 K, x1 = 0.6371 | 716.7 ± 0.3 | – | 0.723 ± 0.021
373.15 K, x1 = 0.7506 | 721.1 ± 0.3 | – | 0.78 ± 0.021
373.15 K, x1 = 0.8711 | 725.6 ± 0.3 | – | 0.841 ± 0.021
373.15 K, x1 = 1 | – | – | 0.913 ± 0.021
